In ChEMBL document CHEMBL5143711, “Glenthmycins A-M: Macrocyclic Spirotetronate Polyketide Antibacterials from the Australian Pasture Plant-Derived Streptomyces sp. CMB-PB041” (J Nat Prod, 2022):
pIC50: −log10 of the molar value.

What was measured:
[1] = tested on: Enterococcus faecalis; test: Antibacterial activity against Enterococcus faecalis incubated for 16 to 24 hrs by broth microdilution based spectrophotometric analysis; type: functional, organism-based
[2] = tested on: Enterococcus faecium; test: Antibacterial activity against vancomycin-resistant Enterococcus faecium incubated for 16 to 24 hrs by broth microdilution based spectrophotometric analysis; type: functional, organism-based
[3] = tested on: Staphylococcus aureus; test: Antibacterial activity against Staphylococcus aureus ATCC 25923 incubated for 16 to 24 hrs by broth microdilution based spectrophotometric analysis; type: functional, organism-based
[4] = tested on: Staphylococcus aureus; test: Antibacterial activity against methicillin-resistant Staphylococcus aureus ATCC 33591 incubated for 16 to 24 hrs by broth microdilution based spectrophotometric analysis; type: functional, organism-based
[5] = tested on: Staphylococcus aureus; test: Antibacterial activity against methicillin-resistant Staphylococcus aureus ATCC 43300 incubated for 16 to 24 hrs by broth microdilution based spectrophotometric analysis; type: functional, organism-based
[6] = tested on: Candida albicans; test: Antifungal activity against Candida albicans ATCC 10231 incubated for 16 to 24 hrs by broth microdilution based spectrophotometric analysis; type: functional, organism-based
[7] = tested on: Escherichia coli; test: Antibacterial activity against Escherichia coli ATCC 11775 incubated for 16 to 24 hrs by broth microdilution based spectrophotometric analysis; type: functional, organism-based
[8] = Cytotoxicity against human NCI-H460 cells and measured after 48 hrs by MTT assay; type: toxicity, cell-based
[9] = tested on: Mycobacterium tuberculosis; test: Antibacterial activity against Mycobacterium tuberculosis H37Ra ATCC 25177 incubated for 16 to 24 hrs by broth microdilution based spectrophotometric analysis; type: functional, organism-based
[10] = Cytotoxicity against human SW-620 cells and measured after 48 hrs by MTT assay; type: toxicity, cell-based

| Structure (SMILES) | pIC50 [1] | pIC50 [2] | pIC50 [3] | pIC50 [4] | pIC50 [5] | pIC50 [6] | pIC50 [7] | IC50 at 48 h [8] | pIC50 [9] | IC50 at 48 h [10] |
| --- | --- | --- | --- | --- | --- | --- | --- | --- | --- | --- |
| CC1=C[C@H]2[C@@H]([C@@H](C)CC[C@@H]2O[C@@H]2O[C@H](C)[C@@H](O)[C@@H](O)[C@H]2O)[C@]2(C)C(=O)C3=C(O)[C@@]4(C[C@@H](C)C(C(=O)O)=C[C@@]4(C)/C=C(\C)CC/C=C(\C)[C@H]12)OC3=O | < 4.52 | < 4.52 | < 4.52 | < 4.52 | < 4.52 |  |  |  |  |  |
| CC(=O)O[C@H]1CC[C@H](C)[C@@H]2[C@@H]1C=C(C)[C@H]1/C(C)=C/CC/C(C)=C/[C@@H]3C=C(C)[C@H](C)C[C@]34OC(=O)C(=C4O)C(=O)[C@@]21C | 5.52 | 5.17 | 6.10 | 5.17 | 6.52 | < 4.52 | < 4.52 | > 30 µM | < 4.52 | > 30 µM |
| CN[C@H](CC(C)C)C(=O)N[C@H]1C(=O)N[C@@H](CC(N)=O)C(=O)N[C@H]2C(=O)N[C@H]3C(=O)N[C@H](C(=O)N[C@H](C(=O)O)c4cc(O)cc(O)c4-c4cc3ccc4O)[C@H](O)c3ccc(c(Cl)c3)Oc3cc2cc(c3O[C@@H]2O[C@H](CO)[C@@H](O)[C@H](O)[C@H]2O[C@H]2C[C@](C)(N)[C@H](O)[C@H](C)O2)Oc2ccc(cc2Cl)[C@H]1O [VANCOMYCIN] | > 5.00 | < 5.00 |  |  |  |  |  |  |  |  |
| COc1cc(C)c(C(=O)O[C@H]2[C@@H](O)[C@H](O[C@H]3CC[C@H](C)[C@@H]4[C@@H]3C=C(C)[C@H]3/C(C)=C/CC/C(C)=C/[C@@H]5C=C(C(=O)O)[C@H](C)C[C@]56OC(=O)C(=C6O)C(=O)[C@@]43C)O[C@H](C)[C@H]2O)c(O)c1 | 5.05 | 5.54 | 5.08 | 5.24 | 5.10 | < 4.52 | < 4.52 | > 30 µM | < 4.52 | > 30 µM |
| CC1=C[C@@]2(C)/C=C(\C)CC/C=C(\C)[C@@H]3C(C)=C[C@H]4[C@@H]([C@@H](C)CC[C@@H]4O)[C@]3(C)C(=O)C3=C(O)[C@@]2(C[C@H]1C)OC3=O | < 4.52 | < 4.52 | 4.79 | 5.08 | 5.42 | < 4.52 | < 4.52 | > 30 µM | < 4.52 | > 30 µM |
| CC1=C[C@H]2[C@@H]([C@@H](C)CC[C@@H]2O)[C@]2(C)C(=O)C3=C(O)[C@@]4(C[C@@H](C)C(C(=O)O)=C[C@@]4(C)/C=C(\C)CC/C=C(\C)[C@H]12)OC3=O | < 4.52 | < 4.52 | < 4.52 | < 4.52 | < 4.52 |  |  |  |  |  |
| COc1cc(C)c(C(=O)O[C@H]2[C@@H](O)[C@H](O[C@H]3CC[C@H](C)[C@@H]4[C@@H]3C=C(C)[C@H]3/C(C)=C/CC/C(C)=C/[C@]5(C)C=C(C(=O)O)[C@H](C)C[C@]56OC(=O)C(=C6O)C(=O)[C@@]43C)O[C@H](C)[C@H]2O)c(O)c1 | 5.40 | 4.88 | 4.63 | 4.91 | 5.14 | < 4.52 | < 4.52 | > 30 µM | < 4.52 | > 30 µM |
| CC(=O)O[C@H]1CC[C@H](C)[C@@H]2[C@@H]1C=C(C)[C@H]1/C(C)=C/CC/C(C)=C/[C@]3(C)C=C(C)[C@H](C)C[C@]34OC(=O)C(=C4O)C(=O)[C@@]21C | 5.43 | 5.00 | 5.92 | 6.05 | 5.96 | < 4.52 | < 4.52 | > 30 µM | < 4.52 | > 30 µM |
| CCCCCCCCCCCC(=O)O[C@H]1CC[C@H](C)[C@@H]2[C@@H]1C=C(C)[C@H]1/C(C)=C/CC/C(C)=C/[C@]3(C)C=C(C)[C@H](C)C[C@]34OC(=O)C(=C4O)C(=O)[C@@]21C | < 4.52 | < 4.52 | < 4.52 | < 4.52 | < 4.52 |  |  |  |  |  |
| COc1cc(C)c(C(=O)O[C@H]2[C@H](O[C@H]3CC[C@H](C)[C@@H]4[C@@H]3C=C(C)[C@H]3/C(C)=C/CC/C(C)=C/[C@]5(C)C=C(C(=O)O)[C@H](C)C[C@]56OC(=O)C(=C6O)C(=O)[C@@]43C)O[C@H](C)[C@@H](O)[C@H]2O)c(O)c1 | 4.89 | 5.14 | 5.00 | 4.99 | 4.82 | < 4.52 | < 4.52 | > 30 µM | < 4.52 | > 30 µM |
| COc1cc(C)c(C(=O)N[C@@H]2[C@@H](C)O[C@@H](O[C@H]3CC[C@H](C)[C@@H]4[C@@H]3C=C(C)[C@H]3/C(C)=C/CC/C(C)=C/[C@@H]5C=C(C(=O)O)[C@H](C)C[C@]56OC(=O)C(=C6O)C(=O)[C@@]43C)[C@H](O)[C@]2(C)O)c(O)c1 | 5.24 | 5.28 | 5.19 | 5.72 | 5.36 | < 4.52 | < 4.52 | > 30 µM | < 4.52 | > 30 µM |
| COc1cc(C)c(C(=O)O[C@H]2[C@@H](O)[C@@H](O)[C@H](O[C@H]3CC[C@H](C)[C@@H]4[C@@H]3C=C(C)[C@H]3/C(C)=C/CC/C(C)=C/[C@]5(C)C=C(C(=O)O)[C@H](C)C[C@]56OC(=O)C(=C6O)C(=O)[C@@]43C)O[C@@H]2C)c(O)c1 | < 4.52 | < 4.52 | < 4.52 | < 4.52 | < 4.52 | < 4.52 | < 4.52 | > 30 µM | < 4.52 | > 30 µM |
| CC1=C[C@H]2[C@@H]([C@@H](C)CC[C@@H]2O)[C@]2(C)C(=O)C3=C(O)[C@@]4(C[C@@H](C)C(C(=O)O)=C[C@H]4/C=C(\C)CC/C=C(\C)[C@H]12)OC3=O | < 4.52 | < 4.52 | < 4.52 | < 4.52 | < 4.52 |  |  |  |  |  |
| COc1cccc(OC)c1C(=O)N[C@@H]1C(=O)N2[C@@H]1SC(C)(C)[C@@H]2C(=O)O [METHICILLIN] |  |  | > 5.00 | < 5.00 | < 5.00 |  |  |  |  |  |
| CCCCC(=O)O[C@H]1CC[C@H](C)[C@@H]2[C@@H]1C=C(C)[C@H]1/C(C)=C/CC/C(C)=C/[C@]3(C)C=C(C)[C@H](C)C[C@]34OC(=O)C(=C4O)C(=O)[C@@]21C | 6.30 | 5.80 | 6.70 | 5.85 | 5.80 |  |  |  |  |  |
| CC(=O)O[C@H]1CC[C@H](C)[C@@H]2[C@@H]1C=C(C)[C@H]1/C(C)=C/CC/C(C)=C/[C@]3(C)C=C(C(=O)O)[C@H](C)C[C@]34OC(=O)C(=C4O)C(=O)[C@@]21C | < 4.52 | < 4.52 | < 4.52 | < 4.52 | < 4.52 |  |  |  |  |  |
| CC(=O)O[C@H]1CC[C@H](C)[C@@H]2[C@@H]1C=C(C)[C@H]1/C(C)=C/CC/C(C)=C/[C@@H]3C=C(C(=O)O)[C@H](C)C[C@]34OC(=O)C(=C4O)C(=O)[C@@]21C | < 4.52 | < 4.52 | < 4.52 | < 4.52 | < 4.52 |  |  |  |  |  |
